Assay results as given in publication PMC7265429, “Characterization of a new small-molecule inhibitor of HDAC6 in glioblastoma” (Cell Death & Disease, 2020).

System: GNS166 cells
Assay: Microarray whole-transcriptome gene expression analysis
Type: cell-based, human
Conditions: DMSO vs SAHA, downregulated
Method: Whole-transcriptome analysis was performed from 300 ng of RNA using HuGene-2_0-st-v1 expression array (Affymetrix), which covers 48,226 transcripts. Raw data were first checked for quality purposes through the Affymetrix® Expression Console™ Software v1.4.1 and TAC software v4.0. Then, data were normalized using the Robust Multi-array Average (RMA) and analyzed by Limma tool. Probesets with FDR-corrected p-values smaller than 0.05 were selected. Functional enrichment on Gene Ontology (GO) biological processes was performed on a smaller subset of the differentially expressed genes (corrected p-value < 0.001) by means of Broad Institute GSEA. […] The data that support this study have been deposited in NCBI´s Gene Expression Omnibus and are accessible through GEO series accession number GSE143887.

**Q.** What does the source list for `O=C(CCCCCCC(=O)Nc1ccccc1)NO` [SAHA, Suberoylanilide hydroxamic acid]?
**A.** logFC IRAK1 (transcript TC0X[…].hg.1): -1.235; logFC B3GALT6 (transcript TC0100006494.hg.1): -0.9983; logFC HMGN2 (transcript TC0100007463.hg.1): -1.008; logFC CDCA8 (transcript TC0100007841.hg.1): -1.807; logFC ERMAP (transcript TC0100008033.hg.1): -2.3938; logFC KIF2C (transcript TC0100008101.hg.1): -1.858; logFC CMPK1 (transcript TC0100008190.hg.1): -1.434; logFC NEXN (transcript TC0100008807.hg.1): -1.823; logFC HIST2H2AA3 (transcript TC0100009876.hg.1): -1.529; logFC HIST2H3A (transcript TC0100009877.hg.1): -1.612; logFC GABPB2 (transcript TC0100009939.hg.1): -1.449; logFC CKS1B (transcript TC0100010100.hg.1): -1.171; logFC PMF1 (transcript TC0100010161.hg.1): -1.537; logFC NUF2 (transcript TC0100010397.hg.1): -2.331; logFC FAM163A (transcript TC0100010786.hg.1): -1.762; logFC CENPF (transcript TC0100011581.hg.1): -1.482; logFC EPHA2 (transcript TC0100013028.hg.1): -1.043; logFC STMN1 (transcript TC0100013369.hg.1): -1.036; logFC HIST2H3A (transcript TC0100015701.hg.1): -1.662; logFC ASPM (transcript TC0100016831.hg.1): -1.487; logFC DDX59 (transcript TC0100016893.hg.1): -1.42; logFC NUCKS1 (transcript TC0100017075.hg.1): -1.264; logFC EIF2D (transcript TC0100017100.hg.1): -1.459; logFC CD34 (transcript TC0100017142.hg.1): -2.059; logFC LIN9 (transcript TC0100017523.hg.1): -1.223; logFC ZBTB8A (transcript TC0100018209.hg.1): -1.532; logFC HIST2H2AA4 (transcript TC0100018482.hg.1): -1.569; logFC IAH1 (transcript TC0200006648.hg.1): -1.549; logFC RRM2 (transcript TC0200006677.hg.1): -1.424; logFC KCNIP3 (transcript TC0200008464.hg.1): -2.439; logFC NCAPH (transcript TC0200008502.hg.1): -2.071; logFC GALNT5 (transcript TC0200009739.hg.1): -2.15; logFC CFLAR (transcript TC0200010443.hg.1): -1.832; logFC ADI1 (transcript TC0200011551.hg.1): -2.286; logFC EVA1A (transcript TC0200013135.hg.1): -1.744; logFC NMI (transcript TC0200014610.hg.1): -2.309; logFC SPC25 (transcript TC0200014845.hg.1): -1.44; logFC SLC16A14 (transcript TC0200015971.hg.1): -1.405; logFC HJURP (transcript TC0200016099.hg.1): -1.261; logFC CENPA (transcript TC0200016417.hg.1): -1.421; logFC SPDYA (transcript TC0200016423.hg.1): -1.919; logFC ACYP2 (transcript TC0200016447.hg.1): -1.266; logFC FANCD2 (transcript TC0300006575.hg.1): -1.767; logFC KIF15 (transcript TC0300007223.hg.1): -1.9928; logFC ARHGAP31 (transcript TC0300008467.hg.1): -1.69; logFC FAIM (transcript TC0300008952.hg.1): -1.871; logFC RTP4 (transcript TC0300009799.hg.1): -1.468; logFC SUCLG2 (transcript TC0300011436.hg.1): -1.146; logFC BDH1 (transcript TC0300013751.hg.1): -1.665; logFC NAALADL2 (transcript TC0300013904.hg.1): -1.839; logFC KCNMB2 (transcript TC0300013906.hg.1): -1.816; logFC NEIL3 (transcript TC0400009396.hg.1): -0.9384; logFC CCNA2 (transcript TC0400011748.hg.1): -1.45; logFC GPM6A (transcript TC0400012473.hg.1): -1.528; logFC TRIP13 (transcript TC0500006472.hg.1): -1.825; logFC NDUFS6 (transcript TC0500006523.hg.1): -0.9474; logFC IL7R (transcript TC0500007138.hg.1): -2.627; logFC NNT (transcript TC0500007303.hg.1): -1.728; logFC CCNB1 (transcript TC0500007665.hg.1): -1.603; logFC KIF20A (transcript TC0500008777.hg.1): -2.05; logFC HIGD2A (transcript TC0500009587.hg.1): -1.228; logFC NSD1 (transcript TC0500009610.hg.1): -1.443; logFC ARSB (transcript TC0500011228.hg.1): -1.571; logFC BRD8 (transcript TC0500012162.hg.1): -1.077; logFC CRHBP (transcript TC0500013193.hg.1): -2.74; logFC PCBD2 (transcript TC0500013230.hg.1): -1.097; logFC FAM169A (transcript TC0500013328.hg.1): -1.569; logFC HIST1H4C (transcript TC0600007268.hg.1): -1.755; logFC HIST1H2BF (transcript TC0600007282.hg.1): -1.711; logFC HIST1H4E (transcript TC0600007284.hg.1): -2.005; logFC HIST1H2AE (transcript TC0600007285.hg.1): -1.564; logFC HIST1H2AL (transcript TC0600007380.hg.1): -1.235; logFC GTF3C6 (transcript TC0600009140.hg.1): -2.124; logFC HIST1H4B (transcript TC0600011123.hg.1): -1.235; logFC HIST1H3B (transcript TC0600011124.hg.1): -1.868; logFC HIST1H3D (transcript TC0600011135.hg.1): -1.444; logFC HIST1H2BG (transcript TC0600011136.hg.1): -1.568; logFC HIST1H4H (transcript TC0600011145.hg.1): -1.26; logFC HIST1H2BJ (transcript TC0600011184.hg.1): -1.604; logFC HIST1H2BK (transcript TC0600011185.hg.1): -1.804; logFC PSMB8 (transcript TC0600011507.hg.1): -1.143; logFC DNPH1 (transcript TC0600011870.hg.1): -1.264; logFC FBXO5 (transcript TC0600013602.hg.1): -1.287; logFC HIST1H2AG (transcript TC0600014083.hg.1): -2.001; logFC NUDT3 (transcript TC0600014283.hg.1): -1.135; logFC LANCL2 (transcript TC0700007610.hg.1): -1.812; logFC GTF2I (transcript TC0700008010.hg.1): -1.635; logFC MEPCE (transcript TC0700008542.hg.1): -1.622; logFC CAV1 (transcript TC0700008873.hg.1): -0.9681
